How the values were obtained:
human NHE3 = biological target: T1, human NHE3 (Homo sapiens, UniProt P48764); assay: Cell-based assay of NHE-3 activity (human NHE3 inhibition assay); set-up: expressed in transfected cells; host or cells: Opossum kidney (OK) cells (ATCC), electroporated; conditions: OK cells with human NHE-3 gene, BCECF pH recovery, 0-30 μM test compound; for IC50: read-out: Human NHE3 pIC50 (converted)
T1 sequence (P48764 26-834): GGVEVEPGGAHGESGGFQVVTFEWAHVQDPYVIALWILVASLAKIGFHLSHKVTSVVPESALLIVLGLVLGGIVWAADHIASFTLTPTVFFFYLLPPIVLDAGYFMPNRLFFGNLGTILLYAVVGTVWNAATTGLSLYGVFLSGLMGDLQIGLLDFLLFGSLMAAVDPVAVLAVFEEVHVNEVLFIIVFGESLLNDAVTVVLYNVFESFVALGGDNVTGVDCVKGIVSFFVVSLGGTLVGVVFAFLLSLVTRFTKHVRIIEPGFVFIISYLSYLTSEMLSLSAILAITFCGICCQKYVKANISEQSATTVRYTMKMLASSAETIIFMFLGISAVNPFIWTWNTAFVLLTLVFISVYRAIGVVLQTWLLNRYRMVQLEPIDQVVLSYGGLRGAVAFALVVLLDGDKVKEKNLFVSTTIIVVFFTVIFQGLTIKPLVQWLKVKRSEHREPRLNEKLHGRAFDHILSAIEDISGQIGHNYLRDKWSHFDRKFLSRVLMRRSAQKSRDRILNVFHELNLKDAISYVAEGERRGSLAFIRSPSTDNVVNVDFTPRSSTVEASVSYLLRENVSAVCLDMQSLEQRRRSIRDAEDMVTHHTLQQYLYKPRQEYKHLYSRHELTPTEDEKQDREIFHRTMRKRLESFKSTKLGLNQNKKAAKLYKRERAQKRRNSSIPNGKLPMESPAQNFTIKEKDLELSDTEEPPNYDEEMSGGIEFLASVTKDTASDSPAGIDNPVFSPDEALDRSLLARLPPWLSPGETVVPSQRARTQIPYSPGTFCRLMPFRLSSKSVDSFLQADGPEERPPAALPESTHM
Experimental: Rat or human NHE-3-mediated Na^+-dependent H^+ antiport was measured using a modification of the pH sensitive dye method originally reported by Paradiso (Proc. Natl. Acad. Sci. USA. (1984) 81(23): 7436-7440). Opossum kidney (OK) cells were obtained from the ATCC and propagated per their instructions. The rat NHE-3 gene (GenBank M85300) or the human NHE-3 gene (GenBank NM_004174.1) was introduced into OK cells via electroporation, and cells were seeded into 96 well plates and grown overnight. Medium was aspirated from the wells, cells were washed twice with NaCl-HEPES buffer (100 mM NaCl, 50 mM HEPES, 10 mM glucose, 5 mM KCl, 2 mM CaCl2, 1 mM MgCl2, pH 7.4), then incubated for 30 min at room temperature with NH4Cl-HEPES buffer (20 mM NH4Cl, 80 mM NaCl, 50 mM HEPES, 5 mM KCl, 2 mM CaCl2, 1 mM MgCl2, pH 7.4) containing 5 μM bis(acetoxymethyl) 3,3′-(3′,6′-bis(acetoxymethoxy)-5-((acetoxymethoxy)carbonyl)-3-oxo-3H-spiro[isobenzofuran-1,9′-xanthene]-2′,7′-diyl)dipropanoate (BCECF-AM). Cells were washed twice with Ammonium free, Na^+-free HEPES (100 mM choline, 50 mM HEPES, 10 mM glucose, 5 mM KCl, 2 mM CaCl2, 1 mM MgCl2, pH 7.4) and incubated in the same buffer for 10 minutes at room temperature to lower intracellular pH. […] Initial rates were plotted as the average 2 or more replicates, and pIC50 values were estimated using GraphPad Prism.

[1] = test system: absorption of sodium from the intestinal lumen; assay: Inhibition of intestinal sodium absorption: rat urinary sodium and fecal form 16 h post-dose; format: in vivo, Sprague-Dawley rats; conditions: for FFS (fecal form score) / response vs control in vivo at 10 mg/kg: oral gavage 10 mg/kg; for FFS (fecal form score): 16 h post-dose, scale 1-5, group average; for response vs control in vivo at 10 mg/kg / response vs control in vivo at 3 mg/kg: urine 16 h post-dose, read-out: uNa Result, uNa (% of vehicle); for response vs control in vivo at 3 mg/kg: oral gavage 3 mg/kg
Experimental: Urinary sodium concentration and fecal form were measured to assess the ability of selected example compounds to inhibit the absorption of sodium from the intestinal lumen. Eight-week old Sprague-Dawley rats were purchased from Charles River Laboratories (Hollister, Calif.), were housed 2 per cage, and acclimated for at least 3 days before study initiation. Animals were fed Harlan Teklad Global 2018 rodent chow (Indianapolis, Ind.) and water ad libitum throughout the study and maintained in a standard light/dark cycle of 6 AM to 6 PM. On the day of the study, between 4 PM and 5 PM, a group of rats (n=6) were dosed via oral gavage with test compound or vehicle (water) at a volume of 10 mL/kg. After dose administration animals were placed in individual metabolic cages where they were also fed the same chow in meal form and watered ad libitum. At 16 h post-dose, the urine samples were collected and fecal form was assessed by two independent observations. Fecal forms were scored according to a common scale associated with increasing fecal water to the wettest observation in the cage's collection funnel (1, normal pellet; 2, pellet adhering to sides of collection funnel due to moisture; 3, loss of normal pellet shape; 4, complete loss of shape with a blotting pattern; 5, liquid fecal streams evident). A rat's fecal form score (FFS) was determined by averaging both observational scores for all rats within a group (n=6). The vehicle group average was 1. For urine samples, the volumes were determined gravimetrically and centrifuged at 3,600×g. The supernatants were diluted 100-fold in deionized Milli-Q water then filtered through a 0.2 μm GHP Pall AcroPrep filter plate (Pall Life Sciences, Ann Arbor, Mich.) prior to analysis by ion chromatography. Ten microliters of each filtered extract was injected onto a Dionex ICS-3000 ion chromatograph system (Dionex, Sunnyvale, Calif.). Cations were separated by an isocratic method using 25 mM methanesulfonic acid as the eluent on an IonPac CS12A 2 mm i.d.×250 mm, 8 μm particle size cation exchange column (Dionex). Sodium was quantified using standards prepared from a cation standard mix containing Li^+, Na^+, NH4^+, K^+, Mg^2+, and Ca^2+ (Dionex). The mean mass of sodium urinated for every group in the 16 h period was determined with the vehicle group usually urinating approximately 21 mg sodium. The urine Na (uNa) for rats in the test groups were expressed as a percentage of the vehicle mean and the means were compared to that of the vehicle group by utilizing a one-way analysis of variance coupled with a Dunnett's post hoc test.

| IC50 (human NHE3) | Structure (SMILES) | Human NHE3 pIC50 (human NHE3) | FFS (fecal form score) [1] | response vs control in vivo at 10 mg/kg [1] | response vs control in vivo at 3 mg/kg [1] |
| --- | --- | --- | --- | --- | --- |
| < 100 nM | CN(C)[C@H]1Cc2c(Cl)cc(Cl)cc2[C@@H]1Oc1ccc(S(=O)(=O)NCCOCCOCCNC(=O)CCC(=O)NCCOCCOCCNS(=O)(=O)c2ccc(O[C@H]3c4cc(Cl)cc(Cl)c4C[C@@H]3N(C)C)cc2)cc1 [Example 8, N1,N4-bis(2-(2-(2-(4-((1S,2S)-4,6-dichloro-2-(dimethylamino)-2,3-dihydro-1H-inden-1-yloxy)phenylsulfonamido)ethoxy)ethoxy)ethyl)succinamide] | – | – | – | 35 to 75% |
| < 100 nM | CN(C)[C@H]1Cc2c(Cl)cc(Cl)cc2[C@@H]1Oc1ccc(S(=O)(=O)NCCOCCOCCNC(=O)CCC(C)(CCC(=O)NCCOCCOCCNS(=O)(=O)c2ccc(O[C@H]3c4cc(Cl)cc(Cl)c4C[C@@H]3N(C)C)cc2)NC(=O)CCC(=O)O)cc1 [Example 12, 1-(4-((1S,2S)-4,6-dichloro-2-(dimethylamino)-2,3-dihydro-1H-inden-1-yloxy)phenylsulfonamido)-13-(3-(2-(2-(2-(4-((1S,2S)-4,6-dichloro-2-(dimethylamino)-2,3-dihydro-1H-inden-1-yloxy)phenylsulfonamido)ethoxy)ethoxy)ethylamino)-3-oxopropyl)-13-methyl-10,15-dioxo-3,6-dioxa-9,14-diazaoctadecan-18-oic Acid] | – | – | – | 35 to 75% |
| < 100 nM | O=C(NCCCCNC(=O)NCCOCCOCCNS(=O)(=O)c1ccc(O[C@H]2c3cc(Cl)ccc3C[C@@H]2N2CCCCC2)cc1)NCCOCCOCCNS(=O)(=O)c1ccc(O[C@H]2c3cc(Cl)ccc3C[C@@H]2N2CCCCC2)cc1 [Example 18] | – | – | – | – |
| > 10000 nM | O=C(NCCCCNC(=O)NCCOCCOCCNS(=O)(=O)c1ccc(O[C@H]2c3ccccc3C[C@@H]2N2CCCC2)cc1)NCCOCCOCCNS(=O)(=O)c1ccc(O[C@H]2c3ccccc3C[C@@H]2N2CCCC2)cc1 [Example 19] | – | – | 35 to 75% | – |
| < 100 nM | CN(C)[C@H]1Cc2c(Cl)cc(Cl)cc2[C@@H]1Oc1ccc(S(=O)(=O)N(C)CCOCCOCCNC(=O)NCCCCNC(=O)NCCOCCOCCN(C)S(=O)(=O)c2ccc(O[C@H]3c4cc(Cl)cc(Cl)c4C[C@@H]3N(C)C)cc2)cc1 [Example 26] | – | 1 | 35 to 75% | – |
| < 100 nM | O=C(NCCCCNC(=O)NCCOCCOCCNS(=O)(=O)c1ccc(O[C@H]2c3ccccc3C[C@@H]2N2CC[C@@H](O)C2)cc1)NCCOCCOCCNS(=O)(=O)c1ccc(O[C@H]2c3ccccc3C[C@@H]2N2CC[C@@H](O)C2)cc1 [Example 31] | – | – | – | – |

Second part, the compound before the results:

| Structure (SMILES) | IC50 (human NHE3) | Human NHE3 pIC50 (human NHE3) | FFS (fecal form score) [1] | response vs control in vivo at 10 mg/kg [1] | response vs control in vivo at 3 mg/kg [1] |
| --- | --- | --- | --- | --- | --- |
| CN(C)[C@H]1Cc2c(Cl)cc(Cl)cc2[C@@H]1Oc1ccc(S(=O)(=O)NCCOCCOCCNC(=O)Nc2ccc(NC(=O)NCCOCCOCCNS(=O)(=O)c3ccc(O[C@H]4c5cc(Cl)cc(Cl)c5C[C@@H]4N(C)C)cc3)cc2)cc1 [Example 2, (S,S)—N,N′-(2,2′-(2,2′-(2,2′-(1,4-phenylenebis(azanediyl))bis(oxomethylene)bis(azanediyl)bis(ethane-2,1-diyl))bis(oxy)bis(ethane-2,1-diyl))bis(oxy)bis(ethane-2,1-diyl))bis(4-((1S,2S)-4,6-dichloro-2-(dimethylamino)-2,3-dihydro-1H-inden-1-yloxy)benzenesulfonamide)] | – | C (NHE3 pIC50 >7) | – | – | – |
| O=C(NCCOCCOCCNS(=O)(=O)c1ccc(O[C@H]2c3ccccc3C[C@@H]2N2CCCCC2)cc1)c1ccc(C(=O)NCCOCCOCCNS(=O)(=O)c2ccc(O[C@H]3c4ccccc4C[C@@H]3N3CCCCC3)cc2)cc1 [Example 6, N1,N4-bis(2-(2-(2-(4-((1S,2S)-2-(piperidin-1-yl)-2,3-dihydro-1H-inden-1-yloxy)phenylsulfonamido)ethoxy)ethoxy)ethyl)terephthalamide] | < 100 nM | – | 1 | 35 to 75% | – |
| CC(C)(C(=O)NCCOCCOCCOCCNS(=O)(=O)c1ccc(O[C@H]2c3ccccc3C[C@@H]2N2CCCCC2)cc1)C(=O)NCCOCCOCCOCCNS(=O)(=O)c1ccc(O[C@H]2c3ccccc3C[C@@H]2N2CCCCC2)cc1 [Example 7, 2,2-dimethyl-N1,N3-bis(2-(2-(2-(2-(4-((1S,2S)-2-(piperidin-1-yl)-2,3-dihydro-1H-inden-1-yloxy)phenylsulfonamido)ethoxy)ethoxy)ethoxy)ethyl)malonamide] | < 100 nM | – | – | 35 to 75% | – |
| NC(CCC(=O)NCCOCCOCCOCCNS(=O)(=O)c1ccc(O[C@H]2c3ccccc3C[C@@H]2N2CCCCC2)cc1)(CCC(=O)NCCOCCOCCOCCNS(=O)(=O)c1ccc(O[C@H]2c3ccccc3C[C@@H]2N2CCCCC2)cc1)CCC(=O)NCCOCCOCCOCCNS(=O)(=O)c1ccc(O[C@H]2c3ccccc3C[C@@H]2N2CCCCC2)cc1 [Example 10, 4-amino-4-(13-oxo-1-(4-((1S,2S)-2-(piperidin-1-yl)-2,3-dihydro-1H-inden-1-yloxy)phenylsulfonamido)-3,6,9-trioxa-12-azapentadecan-15-yl)-N1,N7-bis(2-(2-(2-(2-(4-((1S,2S)-2-(piperidin-1-yl)-2,3-dihydro-1H-inden-1-yloxy)phenylsulfonamido)ethoxy)ethoxy)ethoxy)ethyl)heptanediamide] | < 100 nM | – | – | – | – |
| CN(C)[C@H]1Cc2c(Cl)cc(Cl)cc2[C@@H]1Oc1ccc(S(=O)(=O)NCCOCCOCCNC(=O)Nc2ccc(NC(=O)NCCOCCOCCNS(=O)(=O)c3ccc(O[C@H]4c5cc(Cl)cc(Cl)c5C[C@@H]4N(C)C)cc3)cc2)cc1 [Example 27] | < 100 nM | – | 1 | < 35% | – |
| N[C@@H]1CCCN([C@H]2Cc3ccccc3[C@@H]2Oc2ccc(S(=O)(=O)NCCOCCOCCNC(=O)NCCCCNC(=O)NCCOCCOCCNS(=O)(=O)c3ccc(O[C@H]4c5ccccc5C[C@@H]4N4CCC[C@@H](N)C4)cc3)cc2)C1 [Example 28] | 100 to 10000 nM | – | – | – | – |

Reference: patent US10376481B2, “Compounds and methods for inhibiting NHE-mediated antiport in the treatment of disorders associated with fluid retention or salt overload and gastrointestinal tract disorders” (ARDELYX, INC, priority 2012, dated 2019)
